In ChEMBL document CHEMBL3991601, “The target landscape of clinical kinase drugs” (Science, 2017) one finds Kd data, which are given here for three compounds.

The target of test [1] is Cyclin-dependent kinase 2 (Homo sapiens, UniProt P24941).
Test [2] deals with T1, Ephrin type-B receptor 4 (Homo sapiens, UniProt P54760).
T1 sequence (P54760 whole entry): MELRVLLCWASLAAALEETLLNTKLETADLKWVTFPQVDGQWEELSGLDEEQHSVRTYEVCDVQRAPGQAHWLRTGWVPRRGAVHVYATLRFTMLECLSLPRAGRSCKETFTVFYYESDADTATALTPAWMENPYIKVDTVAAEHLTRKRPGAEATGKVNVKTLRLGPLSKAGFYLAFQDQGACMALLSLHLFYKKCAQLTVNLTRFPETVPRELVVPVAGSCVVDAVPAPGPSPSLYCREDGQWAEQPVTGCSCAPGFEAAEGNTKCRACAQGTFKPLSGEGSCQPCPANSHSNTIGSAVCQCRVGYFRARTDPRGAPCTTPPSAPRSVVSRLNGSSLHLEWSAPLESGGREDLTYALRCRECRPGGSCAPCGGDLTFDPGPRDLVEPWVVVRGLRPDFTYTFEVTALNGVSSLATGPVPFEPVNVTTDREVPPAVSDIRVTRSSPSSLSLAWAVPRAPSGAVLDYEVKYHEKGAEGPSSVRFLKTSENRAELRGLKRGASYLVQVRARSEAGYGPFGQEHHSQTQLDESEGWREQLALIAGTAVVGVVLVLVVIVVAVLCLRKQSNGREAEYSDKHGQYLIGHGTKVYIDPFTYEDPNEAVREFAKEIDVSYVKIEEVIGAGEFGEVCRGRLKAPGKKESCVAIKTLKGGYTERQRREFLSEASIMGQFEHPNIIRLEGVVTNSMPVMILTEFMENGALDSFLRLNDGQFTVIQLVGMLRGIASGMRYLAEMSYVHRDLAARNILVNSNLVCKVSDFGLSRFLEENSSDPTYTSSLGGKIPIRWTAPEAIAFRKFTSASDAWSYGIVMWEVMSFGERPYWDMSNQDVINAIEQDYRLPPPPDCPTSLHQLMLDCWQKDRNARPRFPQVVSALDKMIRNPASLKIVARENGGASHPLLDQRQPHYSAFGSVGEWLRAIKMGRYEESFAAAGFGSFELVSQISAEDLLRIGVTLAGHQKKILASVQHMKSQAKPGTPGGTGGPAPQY

Test [3] deals with Dual specificity mitogen-activated protein kinase kinase 2 (Homo sapiens, UniProt P36507).
Chain of Dual specificity mitogen-activated protein kinase kinase 2 (P36507 whole entry): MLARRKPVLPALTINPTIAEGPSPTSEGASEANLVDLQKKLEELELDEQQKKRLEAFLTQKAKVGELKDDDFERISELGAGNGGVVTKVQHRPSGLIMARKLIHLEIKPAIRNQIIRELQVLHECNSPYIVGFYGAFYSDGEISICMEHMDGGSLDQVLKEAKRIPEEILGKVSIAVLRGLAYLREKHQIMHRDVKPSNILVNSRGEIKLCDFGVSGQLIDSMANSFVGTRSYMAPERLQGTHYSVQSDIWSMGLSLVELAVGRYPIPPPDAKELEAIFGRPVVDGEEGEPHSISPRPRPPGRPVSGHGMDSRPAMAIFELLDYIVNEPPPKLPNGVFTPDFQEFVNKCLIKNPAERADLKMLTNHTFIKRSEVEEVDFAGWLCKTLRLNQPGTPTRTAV
Test [4] deals with Mitogen-activated protein kinase kinase kinase 4 (Homo sapiens, UniProt Q9Y6R4).
Chain of Mitogen-activated protein kinase kinase kinase 4 (Q9Y6R4 whole entry): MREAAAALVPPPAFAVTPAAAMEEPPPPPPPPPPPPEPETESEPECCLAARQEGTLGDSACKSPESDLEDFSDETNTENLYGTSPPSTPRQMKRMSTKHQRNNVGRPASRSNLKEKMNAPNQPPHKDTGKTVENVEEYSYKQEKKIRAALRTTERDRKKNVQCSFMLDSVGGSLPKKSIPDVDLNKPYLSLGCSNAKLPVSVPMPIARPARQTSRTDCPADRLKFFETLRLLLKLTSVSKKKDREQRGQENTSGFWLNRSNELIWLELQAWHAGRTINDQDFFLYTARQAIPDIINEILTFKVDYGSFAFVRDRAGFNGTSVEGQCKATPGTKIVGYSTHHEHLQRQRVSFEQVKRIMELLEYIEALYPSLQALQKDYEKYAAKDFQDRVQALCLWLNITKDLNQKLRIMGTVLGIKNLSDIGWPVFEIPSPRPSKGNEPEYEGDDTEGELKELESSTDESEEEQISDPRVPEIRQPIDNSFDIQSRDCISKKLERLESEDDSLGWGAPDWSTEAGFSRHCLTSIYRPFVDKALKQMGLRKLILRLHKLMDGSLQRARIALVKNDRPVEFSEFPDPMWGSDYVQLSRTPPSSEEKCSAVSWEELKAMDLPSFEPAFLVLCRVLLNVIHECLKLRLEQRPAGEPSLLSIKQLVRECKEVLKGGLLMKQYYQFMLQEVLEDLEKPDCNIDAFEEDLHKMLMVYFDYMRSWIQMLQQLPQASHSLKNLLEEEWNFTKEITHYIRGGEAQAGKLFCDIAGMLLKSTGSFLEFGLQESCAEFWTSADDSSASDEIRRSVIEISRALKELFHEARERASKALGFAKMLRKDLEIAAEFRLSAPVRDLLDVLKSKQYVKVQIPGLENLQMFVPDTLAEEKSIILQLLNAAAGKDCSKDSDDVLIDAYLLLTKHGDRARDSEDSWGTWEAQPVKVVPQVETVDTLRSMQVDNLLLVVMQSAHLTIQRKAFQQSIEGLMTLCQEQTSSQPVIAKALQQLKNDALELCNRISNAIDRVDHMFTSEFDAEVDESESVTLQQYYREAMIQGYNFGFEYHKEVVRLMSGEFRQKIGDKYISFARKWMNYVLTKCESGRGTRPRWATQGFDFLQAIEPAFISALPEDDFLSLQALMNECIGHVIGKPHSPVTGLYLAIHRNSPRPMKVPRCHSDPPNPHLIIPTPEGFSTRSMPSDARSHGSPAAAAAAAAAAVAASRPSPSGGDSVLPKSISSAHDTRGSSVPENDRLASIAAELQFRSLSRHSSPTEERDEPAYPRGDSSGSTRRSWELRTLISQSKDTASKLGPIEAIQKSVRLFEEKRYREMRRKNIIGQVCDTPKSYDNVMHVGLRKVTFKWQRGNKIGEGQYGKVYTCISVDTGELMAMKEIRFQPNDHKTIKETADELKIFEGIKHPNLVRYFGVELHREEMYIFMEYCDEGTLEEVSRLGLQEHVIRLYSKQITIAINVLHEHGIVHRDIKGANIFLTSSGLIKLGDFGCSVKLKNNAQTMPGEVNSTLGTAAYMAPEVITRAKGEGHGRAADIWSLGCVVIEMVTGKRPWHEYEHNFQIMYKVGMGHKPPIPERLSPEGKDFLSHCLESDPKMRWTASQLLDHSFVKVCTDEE
Test [5] concerns the target Myosin-10 (Homo sapiens, UniProt P35580).
In test [6] the target is cAMP-dependent protein kinase catalytic subunit alpha (Homo sapiens, UniProt P17612).
Test [7] concerns the target T2, Serine/threonine-protein kinase D2 (Homo sapiens, UniProt Q9BZL6).
T2 sequence (Q9BZL6 whole entry): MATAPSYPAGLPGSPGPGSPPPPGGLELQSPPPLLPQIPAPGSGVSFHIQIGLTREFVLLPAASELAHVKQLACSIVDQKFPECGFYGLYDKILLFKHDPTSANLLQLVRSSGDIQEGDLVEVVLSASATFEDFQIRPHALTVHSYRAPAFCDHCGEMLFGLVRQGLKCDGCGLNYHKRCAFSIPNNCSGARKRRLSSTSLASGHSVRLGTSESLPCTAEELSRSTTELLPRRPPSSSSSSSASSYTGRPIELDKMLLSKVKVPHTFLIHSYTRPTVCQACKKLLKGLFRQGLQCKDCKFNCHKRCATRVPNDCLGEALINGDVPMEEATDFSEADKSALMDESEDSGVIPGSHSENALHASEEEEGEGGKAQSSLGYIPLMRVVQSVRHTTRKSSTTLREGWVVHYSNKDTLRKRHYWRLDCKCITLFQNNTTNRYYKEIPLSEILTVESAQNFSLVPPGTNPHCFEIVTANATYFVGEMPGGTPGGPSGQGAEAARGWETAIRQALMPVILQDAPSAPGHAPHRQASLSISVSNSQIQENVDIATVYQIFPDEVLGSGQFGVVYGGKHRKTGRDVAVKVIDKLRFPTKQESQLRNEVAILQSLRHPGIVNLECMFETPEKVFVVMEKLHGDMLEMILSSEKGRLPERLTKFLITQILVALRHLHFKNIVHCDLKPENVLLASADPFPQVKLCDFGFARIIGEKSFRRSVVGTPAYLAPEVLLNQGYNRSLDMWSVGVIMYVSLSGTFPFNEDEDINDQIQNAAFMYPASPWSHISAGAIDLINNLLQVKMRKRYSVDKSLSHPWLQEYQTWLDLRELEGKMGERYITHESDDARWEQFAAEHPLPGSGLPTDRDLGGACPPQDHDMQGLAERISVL

Test [8] has as its target Protein-tyrosine kinase 6 (Homo sapiens, UniProt Q13882).
Test [9] deals with T3, Serine/threonine-protein kinase 4 (Homo sapiens, UniProt Q13043).
T3 sequence (Q13043 whole entry): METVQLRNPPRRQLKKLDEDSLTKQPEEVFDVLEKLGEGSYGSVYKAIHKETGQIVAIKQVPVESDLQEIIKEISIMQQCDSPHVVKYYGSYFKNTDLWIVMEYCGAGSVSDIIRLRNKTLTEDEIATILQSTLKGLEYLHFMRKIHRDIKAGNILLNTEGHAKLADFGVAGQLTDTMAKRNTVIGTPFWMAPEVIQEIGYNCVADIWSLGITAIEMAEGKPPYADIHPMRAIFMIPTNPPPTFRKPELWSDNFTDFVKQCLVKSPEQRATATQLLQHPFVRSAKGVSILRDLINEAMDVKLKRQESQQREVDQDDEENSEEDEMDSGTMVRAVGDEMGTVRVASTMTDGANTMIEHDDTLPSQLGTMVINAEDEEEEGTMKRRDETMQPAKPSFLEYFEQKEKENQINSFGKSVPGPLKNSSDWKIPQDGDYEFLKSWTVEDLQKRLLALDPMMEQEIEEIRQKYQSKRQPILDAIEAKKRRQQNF

Activity calls are given as the source filed them. For most assays here, no stated cut-off is given here; in the data, actives have a measured Kd and inactives only a lower limit. Some results are limits rather than exact numbers.

Chain of Protein-tyrosine kinase 6 (Q13882 whole entry): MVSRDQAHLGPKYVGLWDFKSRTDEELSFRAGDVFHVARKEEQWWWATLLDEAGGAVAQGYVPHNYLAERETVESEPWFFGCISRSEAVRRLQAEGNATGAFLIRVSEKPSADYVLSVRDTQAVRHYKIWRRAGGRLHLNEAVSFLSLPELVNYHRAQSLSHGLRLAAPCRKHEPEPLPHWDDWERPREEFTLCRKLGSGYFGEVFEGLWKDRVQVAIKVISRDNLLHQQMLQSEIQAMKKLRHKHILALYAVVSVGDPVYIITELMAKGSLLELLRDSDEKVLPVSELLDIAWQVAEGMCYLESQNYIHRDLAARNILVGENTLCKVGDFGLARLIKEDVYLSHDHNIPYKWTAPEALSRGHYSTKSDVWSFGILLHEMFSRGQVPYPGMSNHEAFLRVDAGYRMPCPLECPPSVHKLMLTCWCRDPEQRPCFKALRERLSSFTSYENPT
Chain of Myosin-10 (P35580 whole entry): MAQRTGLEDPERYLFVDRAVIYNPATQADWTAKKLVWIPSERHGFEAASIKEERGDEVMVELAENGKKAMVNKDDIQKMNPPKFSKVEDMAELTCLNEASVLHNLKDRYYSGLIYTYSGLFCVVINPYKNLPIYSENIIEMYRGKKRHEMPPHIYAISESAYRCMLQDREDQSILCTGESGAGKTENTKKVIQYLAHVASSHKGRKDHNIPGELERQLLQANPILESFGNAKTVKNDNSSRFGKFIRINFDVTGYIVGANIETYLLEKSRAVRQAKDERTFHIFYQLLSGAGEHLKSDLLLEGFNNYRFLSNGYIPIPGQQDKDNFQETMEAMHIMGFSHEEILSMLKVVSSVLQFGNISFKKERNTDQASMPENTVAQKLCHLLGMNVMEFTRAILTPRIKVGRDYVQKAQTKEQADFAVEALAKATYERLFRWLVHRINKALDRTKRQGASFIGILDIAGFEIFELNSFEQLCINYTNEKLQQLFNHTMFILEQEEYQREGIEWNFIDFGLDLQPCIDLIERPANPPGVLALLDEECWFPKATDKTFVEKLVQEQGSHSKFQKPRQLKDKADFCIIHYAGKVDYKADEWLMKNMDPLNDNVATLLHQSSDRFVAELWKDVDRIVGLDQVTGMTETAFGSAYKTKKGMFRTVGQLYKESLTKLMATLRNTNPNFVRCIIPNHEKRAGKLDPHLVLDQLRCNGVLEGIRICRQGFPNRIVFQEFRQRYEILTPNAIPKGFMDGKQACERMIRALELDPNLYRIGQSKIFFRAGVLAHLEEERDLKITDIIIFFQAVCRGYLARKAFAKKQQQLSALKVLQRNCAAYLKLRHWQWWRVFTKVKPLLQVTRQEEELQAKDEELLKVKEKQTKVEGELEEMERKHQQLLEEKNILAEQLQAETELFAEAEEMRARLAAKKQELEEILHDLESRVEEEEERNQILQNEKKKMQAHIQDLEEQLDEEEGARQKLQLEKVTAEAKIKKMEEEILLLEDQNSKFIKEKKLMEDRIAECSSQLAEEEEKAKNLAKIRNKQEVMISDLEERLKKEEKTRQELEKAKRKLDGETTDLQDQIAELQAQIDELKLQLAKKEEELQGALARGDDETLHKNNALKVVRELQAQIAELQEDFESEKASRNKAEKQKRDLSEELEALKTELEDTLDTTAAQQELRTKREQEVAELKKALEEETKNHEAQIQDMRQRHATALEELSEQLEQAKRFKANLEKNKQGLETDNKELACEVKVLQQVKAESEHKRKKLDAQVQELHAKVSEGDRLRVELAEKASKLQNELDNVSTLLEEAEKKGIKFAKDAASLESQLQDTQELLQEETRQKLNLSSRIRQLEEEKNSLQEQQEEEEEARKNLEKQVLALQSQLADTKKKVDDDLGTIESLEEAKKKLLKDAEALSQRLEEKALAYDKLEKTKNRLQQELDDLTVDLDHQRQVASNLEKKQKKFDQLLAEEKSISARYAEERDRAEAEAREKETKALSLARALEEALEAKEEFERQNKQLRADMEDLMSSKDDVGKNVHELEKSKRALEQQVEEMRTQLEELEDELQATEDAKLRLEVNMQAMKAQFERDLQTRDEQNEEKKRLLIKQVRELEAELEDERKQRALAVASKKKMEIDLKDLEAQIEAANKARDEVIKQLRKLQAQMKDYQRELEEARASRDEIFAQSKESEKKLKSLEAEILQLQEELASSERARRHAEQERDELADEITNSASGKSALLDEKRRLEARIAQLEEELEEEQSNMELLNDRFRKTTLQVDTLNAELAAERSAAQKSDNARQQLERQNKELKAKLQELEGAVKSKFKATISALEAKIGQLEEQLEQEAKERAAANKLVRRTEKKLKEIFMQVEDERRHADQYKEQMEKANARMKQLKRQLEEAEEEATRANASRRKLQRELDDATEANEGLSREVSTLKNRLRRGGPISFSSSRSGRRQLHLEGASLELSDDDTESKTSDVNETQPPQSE

Consider `O=C(Cc1ccc(-c2ccc(OCCN3CCOCC3)cc2)cn1)NCc1ccccc1` [TIRBANIBULIN], for which the Kd in [1], in test [2], in [3], in test [4], in [5] and in test [6] was > 30 µM (inactive) in each case. Moreover, the Kd in [7], in [8] and in test [9] was > 30 µM (inactive) throughout.
On to `C[C@@H](NC(=O)c1ncnc(N)c1Cl)c1ncc(C(=O)Nc2cc(C(F)(F)F)c(Cl)cn2)s1` [TOVORAFENIB], for which the Kd in test [1] was > 30 µM (inactive); in test [2] it was 9.43 µM (active); in test [3], > 30 µM (inactive); in [4] it was > 30 µM (inactive); in [5], > 30 µM (inactive); in [6], > 30 µM (inactive). Also, the Kd in test [7], in [8] and in [9] was > 30 µM (inactive) throughout.
Regarding `Cc1cc(Nc2ncnc3ccc(NC4=NC(C)(C)CO4)cc23)ccc1Oc1ccn2ncnc2c1` [TUCATINIB], the Kd in test [1], in [2], in [3], in test [4], in test [5] and in test [6] was > 30 µM (inactive) in each case. The Kd in test [7], in test [8] and in test [9] was > 30 µM (inactive) each time.

For orientation: Kd means the concentration at which binding is half-saturated.
